{
  "source": "patent US8642632B2",
  "about": "“Selective androgen receptor modulators” (Radius Health, Inc., priority 2010, dated 2014)",
  "data": [
    {"molecular_target": "T1, androgen receptor (Rattus norvegicus, UniProt P15207)", "T1 construct": "purchased Invitrogen, Madison, Wis", "T1 sequence (P15207 651-902 limits assumed)": "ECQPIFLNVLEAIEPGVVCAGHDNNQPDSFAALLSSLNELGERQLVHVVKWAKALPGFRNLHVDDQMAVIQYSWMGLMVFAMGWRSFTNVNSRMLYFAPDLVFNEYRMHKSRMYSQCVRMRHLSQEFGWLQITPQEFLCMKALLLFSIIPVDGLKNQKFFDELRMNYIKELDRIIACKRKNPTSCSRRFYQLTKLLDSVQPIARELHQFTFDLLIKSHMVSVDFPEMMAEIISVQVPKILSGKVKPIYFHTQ", "experiment": "androgen receptor binding assay (fluorescence polarization, Invitrogen AR-Fluormone)", "details": "not given", "experimental": "The assay was performed as specified by the manufacturer (Invitrogen, Madison, Wis.). Briefly, 1 μl of 10 mM compound was added to 500 μl of AR screening buffer in a 1.5 ml eppendorf tube to make a 2×10^−5M stock. 10-fold serial dilutions of the test compounds were prepared ranging in concentration from 10^−5M to 10^−12M. Each dilution was added in triplicate to a black 384-microtiter plate. The test compounds will be diluted 2-fold in the final reaction. 2×AR-Fluormone™ complex was prepared with 2 nM Flourmone AL Green™ and 30 nM AR. 25 μl of 2× complex was aliquoted to each reaction well, such that the final reaction volume was 50 μl per well. Plate was sealed with a foil cover and incubated in the dark at room temperature for 4 h. Polarization values for each well were measured. The polarization values were plotted against the concentration of the test compound. The concentration of the test compound that results in half-maximum shift equals the IC50 of the test compound. As a control, a competition curve for R1881 (methyltrienolone) was performed for each assay. Curve Fitting was performed using GraphPad Prism® software from GraphPad™ Software Inc. Binding data are reported as a single determination if the experiment was run once only and as the average of experiments if the binding experiment was performed two or more times with that compound.\nThe binding data shown in table 1 (below) is from the result of a single or multiple determinations based on the same compound. Where multiple data points have been taken, the value reported is the average of the multiple determinations.", "units": {"IC50": "nM"}, "values": [
      {"smiles": "CC(C)(O)[C@@H](Nc1ccc(C#N)c(C(F)(F)F)c1)c1nnc(-c2ccc(F)cc2)o1", "note": "[Example 1, (R)-4-(1-(5-(4-fluorophenyl)-1,3,4-oxadiazol-2-yl)-2-hydroxy-2-methylpropylamino)-2-(trifluoromethyl)benzonitrile]", "IC50": "> 1000"},
      {"smiles": "Cc1c(N[C@@H](c2nnc(-c3ccc(F)cc3)o2)C(C)(C)O)ccc(C#N)c1C(F)(F)F", "note": "[Example 2, (R)-4-(1-(5-(4-fluorophenyl)-1,3,4-oxadiazol-2-yl)-2-hydroxy-2-methylpropylamino)-3-methyl-2-(trifluoromethyl)benzonitrile]", "IC50": 40},
      {"smiles": "Cc1c(N[C@@H](c2nnc(-c3ccc(C#N)cc3)o2)C(C)(C)O)ccc(C#N)c1C(F)(F)F", "note": "[Example 3, (R)-4-(1-(5-(4-cyanophenyl)-1,3,4-oxadiazol-2-yl)-2-hydroxy-2-methylpropylamino)-3-methyl-2-(trifluoromethyl)benzonitrile]", "IC50": 30},
      {"smiles": "CCCc1c(N[C@@H](c2nnc(-c3ccc(C#N)cc3)o2)[C@H](C)O)ccc(C#N)c1Cl", "note": "[Example 4, 2-Chloro-4-((1R,2S)-1-(5-(4-cyanophenyl)-1,3,4-oxadiazol-2-yl)-2-hydroxypropylamino)-3-propylbenzonitrile]", "IC50": 0.3},
      {"smiles": "Cc1c(N[C@@H](c2nnc(-c3ccc(F)cc3)o2)C(C)(C)O)ccc(C#N)c1Cl", "note": "[Example 5, (R)-2-chloro-4-(1-(5-(4-fluorophenyl)-1,3,4-oxadiazol-2-yl)-2-hydroxy-2-methylpropylamino)-3-methylbenzonitrile]", "IC50": 6},
      {"smiles": "Cc1c(N[C@@H](c2nnc(-c3ccc(C#N)cc3)o2)C(C)(C)O)ccc(C#N)c1Cl", "note": "[Example 6, (R)-2-chloro-4-(1-(5-(4-cyanophenyl)-1,3,4-oxadiazol-2-yl)-2-hydroxy-2-methylpropylamino)-3-methylbenzonitrile]", "IC50": 4},
      {"smiles": "Cc1c(N[C@@H](c2nnc(-c3ccc(C#N)cc3)o2)[C@H](O)C(F)(F)F)ccc(C#N)c1Cl", "note": "[Example 7, 2-chloro-4-((1R,2S)-1-(5-(4-cyanophenyl)-1,3,4-oxadiazol-2-yl)-3,3,3-trifluoro-2-hydroxypropylamino)-3-methylbenzonitrile]", "IC50": 290}
    ]},
    {"tested_on": "castrated rat", "experiment": "In vivo rat model of androgen and anabolic activity - rat Herschberger assay", "details": "3 mg/kg orally, once daily for 4 days, compared with Sham and testosterone propionate (TP) controls", "text": "Organ and muscle weight is on Y-axis and the numbers refer to weight in milligrams. *ρ<0.05 compared to vehicle. ^ρ<0.05 compared to TP and sham.\nThe following is a typical procedure of the in vivo evaluation of the selective androgens of this invention. In particular, this assay looks primarily at the ability of the selective androgens of this invention to increase muscle size in an immature, castrated rat. In addition, androgenic effects are looked at primarily by weighing the prostate and seminal vesicles. Selective compounds will show a greater increase in the levator ani relative to the prostate and seminal vesicles when compared to testosterone treated, castrated animals or to intact animals that have not been treated. Immature Sprague Dawley male rats were obtained Charles River Laboratories (Stoneridge, N.Y.). All animals were maintained in a temperature and humidity controlled room with a 12 hr light: 12 hr dark cycle, with ad lib access to food (TD 291615, Teklad, Madison, Wis.) and water. Rats were anesthetized and orchidectomized (GDX) or sham surgery (SHAM) was performed. […] The prostate, seminal vesicle and levator ani and bulba cavernous (LABC) tissues were removed, weighed and recorded. Body weights were recorded for each animal at baseline and at sacrifice.", "values": [
      {"smiles": "Cc1c(N[C@@H](c2nnc(-c3ccc(F)cc3)o2)C(C)(C)O)ccc(C#N)c1Cl", "note": "[Example 5, (R)-2-chloro-4-(1-(5-(4-fluorophenyl)-1,3,4-oxadiazol-2-yl)-2-hydroxy-2-methylpropylamino)-3-methylbenzonitrile]", "levator ani muscle (LABC) weight": "significantly above the non-castrated control (Sham) and testosterone propionate-treated (TP) controls"}
    ]}
  ]
}
